Test results taken from patent US5462926A (Biomeasure, Inc., priority 1993, dated 1995).
Where a SMILES comes first, the peptide text is derived from it. Bridges are numbered along the chain shown (N, C = ends). [ ]: non-standard residue; d: D form. 2Nal = N[C@@H](Cc1ccc2ccccc2c1)C(=O)O; d2Nal = N[C@H](Cc1ccc2ccccc2c1)C(=O)O

Assays:
Format in all cases: binding
CCKA receptors = molecular target: T1, CCKA receptors (Rattus norvegicus, UniProt P30551); assay: CCKA receptor assay, 125I-CCK-8, rat pancreatic membranes
T1 construct: rat pancreas (CCKA receptor assay); from tissue; host or cells: rat pancreas membranes

PYY receptor = assay: PYY membrane receptor assay, rat cerebral cortex; details: 1 μM
bradykinin1 = assay: Bradykinin membrane receptor assay, [3H]bradykinin; details: 1 μM
TRH receptor = assay: TRH membrane assay, rat forebrain; details: 1 μM
α2-adrenergic receptor = assay: α2-adrenergic membrane receptor assay, rat cerebral cortex; details: 1 μM
β1-adrenergic receptor = molecular target: T2, β1-adrenergic receptor (Homo sapiens, UniProt P08588); assay: β1-adrenergic membrane receptor assay, [3H]dihydroalprenolol; details: 1 μM
T2 construct: receptors on plasma membranes on various tissues determined as described in METHODS; from tissue; host or cells: plasma membranes

[1] = system: muscarinic cholinergic receptor; assay: Muscarinic cholinergic membrane receptor assay, rat cerebral cortex; details: 1 μM
[2] = system: benzodiazepine-neural receptor; assay: Neural benzodiazepine membrane receptor assay, rat cerebral cortex; details: 1 μM
[3] = molecular target: T3, benzodiazepine-peripheral receptor (Rattus norvegicus, UniProt P16257); assay: Peripheral benzodiazepine membrane receptor assay, rat cerebral cortex; details: 1 μM
T3 construct: from tissue; host or cells: rat cerebral cortex membranes

dopamine2 receptor = molecular target: T4, dopamine2 receptor (Rattus norvegicus, UniProt P61169); assay: Dopamine2 membrane receptor assay, rat corpus striatum; details: 1 μM
T4 construct: rat corpus striatum (dopamine1 and dopamine2 membrane receptor assays); from tissue; host or cells: rat corpus striatum membranes

adenosine1 receptor = molecular target: T5, adenosine1 receptor (Rattus norvegicus, UniProt P25099); assay: Adenosine membrane receptor assay, rat cerebral cortex; details: 1 μM
T5 construct: rat cerebral cortex (CCKB, PYY, neurotensin, α1 -adrenergic, α2 -adrenergic, muscarinic cholinergic, neural benzodiazepine, peripheral benzodiazepine, adenosine,; from tissue; host or cells: rat cerebral cortex membranes

[4] = molecular target: T6, N-methyl D-aspartate receptors (Rattus norvegicus, UniProt P35439); assay: N-methyl-D-aspartate membrane receptor assay, rat cerebral cortex; details: 1 μM
T6 construct: from tissue; host or cells: rat cerebral cortex membranes

T1 sequence (P30551 whole entry): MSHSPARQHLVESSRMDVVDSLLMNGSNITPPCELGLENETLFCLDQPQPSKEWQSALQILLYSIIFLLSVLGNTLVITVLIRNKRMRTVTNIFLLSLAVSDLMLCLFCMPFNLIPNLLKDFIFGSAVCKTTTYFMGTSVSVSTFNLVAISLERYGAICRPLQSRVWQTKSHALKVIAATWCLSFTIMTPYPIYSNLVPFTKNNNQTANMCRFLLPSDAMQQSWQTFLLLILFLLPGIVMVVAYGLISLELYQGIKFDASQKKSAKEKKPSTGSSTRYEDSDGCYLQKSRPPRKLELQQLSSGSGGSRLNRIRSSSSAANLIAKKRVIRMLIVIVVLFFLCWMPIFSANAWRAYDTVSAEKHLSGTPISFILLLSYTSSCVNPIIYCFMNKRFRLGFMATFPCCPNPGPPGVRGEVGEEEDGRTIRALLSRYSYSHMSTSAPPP
T5 sequence (P25099 whole entry): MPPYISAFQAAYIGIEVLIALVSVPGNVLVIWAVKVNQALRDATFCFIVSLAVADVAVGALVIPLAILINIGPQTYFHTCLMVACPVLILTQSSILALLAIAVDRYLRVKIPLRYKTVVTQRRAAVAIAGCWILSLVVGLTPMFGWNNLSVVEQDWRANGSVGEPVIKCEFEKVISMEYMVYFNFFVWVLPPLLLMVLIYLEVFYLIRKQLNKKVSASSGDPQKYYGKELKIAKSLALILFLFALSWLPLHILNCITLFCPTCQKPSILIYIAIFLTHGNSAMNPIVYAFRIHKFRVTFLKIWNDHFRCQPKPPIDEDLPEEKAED
T3 sequence (P16257 whole entry): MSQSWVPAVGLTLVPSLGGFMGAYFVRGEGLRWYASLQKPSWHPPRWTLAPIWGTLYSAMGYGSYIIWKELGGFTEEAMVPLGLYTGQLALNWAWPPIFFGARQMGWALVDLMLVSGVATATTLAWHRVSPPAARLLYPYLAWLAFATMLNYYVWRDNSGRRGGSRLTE
T2 sequence (P08588 whole entry): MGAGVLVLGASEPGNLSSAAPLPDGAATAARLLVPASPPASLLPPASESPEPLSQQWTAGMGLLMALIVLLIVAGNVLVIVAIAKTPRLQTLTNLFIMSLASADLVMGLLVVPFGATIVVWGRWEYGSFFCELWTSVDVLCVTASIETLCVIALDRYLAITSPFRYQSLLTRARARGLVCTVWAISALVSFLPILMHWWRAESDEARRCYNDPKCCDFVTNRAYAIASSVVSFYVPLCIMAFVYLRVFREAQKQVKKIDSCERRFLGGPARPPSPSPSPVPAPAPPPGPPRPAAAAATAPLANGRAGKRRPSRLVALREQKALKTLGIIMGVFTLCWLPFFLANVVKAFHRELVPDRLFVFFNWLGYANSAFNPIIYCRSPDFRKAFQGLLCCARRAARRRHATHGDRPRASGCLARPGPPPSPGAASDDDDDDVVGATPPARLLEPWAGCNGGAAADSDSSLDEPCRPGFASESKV
T4 sequence (P61169 whole entry): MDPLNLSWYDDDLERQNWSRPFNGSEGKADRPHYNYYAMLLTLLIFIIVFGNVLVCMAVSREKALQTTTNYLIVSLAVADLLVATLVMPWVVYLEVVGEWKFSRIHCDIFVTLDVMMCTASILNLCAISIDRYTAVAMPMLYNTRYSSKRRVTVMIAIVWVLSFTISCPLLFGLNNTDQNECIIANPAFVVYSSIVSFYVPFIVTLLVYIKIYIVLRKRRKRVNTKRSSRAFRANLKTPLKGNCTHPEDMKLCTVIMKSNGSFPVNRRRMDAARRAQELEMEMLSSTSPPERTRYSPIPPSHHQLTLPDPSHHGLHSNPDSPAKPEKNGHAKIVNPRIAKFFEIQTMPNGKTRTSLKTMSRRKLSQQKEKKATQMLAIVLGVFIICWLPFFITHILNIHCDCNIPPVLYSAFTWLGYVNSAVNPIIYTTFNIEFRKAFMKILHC

SMILES: CC(C)[C@@H]1NC(=O)[C@H](CCCCN)NC(=O)[C@@H](Cc2c[nH]c3ccccc23)NC(=O)[C@H](Cc2ccc(O)cc2)NC(=O)[C@@H](NC(=O)[C@H](N)Cc2ccc3ccccc3c2)CSSC[C@@H](C(=O)N[C@@H](Cc2ccc3ccccc3c2)C(N)=O)NC1=O [Analog #1, H2 -D-Nal-Cys-Tyr-D-Trp-Lys-Val-Cys-Nal-NH2] (H-[d2Nal]CY[dW]KVC[2Nal]-NH2; disulfide 2-7)
- inhibition of binding to CCKA receptors (CCKA receptors; 1 μM): did not inhibit binding
- Ki (CCKA receptors; rat pancreatic membranes, read-out: affinity, inhibition of 125I-CCK-8 binding to CCKA receptors): 5.537 ± 0.007 µM
- inhibition of binding to PYY receptors (PYY receptor): did not inhibit binding
- inhibition of binding to bradykinin1 receptors (bradykinin1): did not inhibit binding
- inhibition of binding to TRH receptors (TRH receptor): did not inhibit binding
- inhibition of binding to α2-adrenergic receptors (α2-adrenergic receptor): did not inhibit binding
- inhibition of binding to β1-adrenergic receptors (β1-adrenergic receptor): did not inhibit binding
- inhibition of binding to muscarinic cholinergic receptors [1]: did not inhibit binding
- inhibition of binding to benzodiazepine-neural receptors [2]: did not inhibit binding
- inhibition of binding to benzodiazepine-peripheral receptors [3]: did not inhibit binding
- inhibition of binding to dopamine2 receptors (dopamine2 receptor): did not inhibit binding
- inhibition of binding to adenosine1 receptors (adenosine1 receptor): did not inhibit binding
- inhibition of binding to N-methyl D-aspartate receptors [4]: did not inhibit binding
